Tested on: Sprague Dawley rats
Assay: Rat sleep study with ECoG/EMG telemetry (sleep stage scoring)
Format: in vivo
Settings: averaged over seven nights
Text: This study examined the effects of the T-type calcium channel antagonist Compound A (6-chloro-3,4-dihydro-3-ethyl-4-phenyl-4-ethyl-2(1H)-quinazolinone; PCT WO 93/04047) on sleep by using electrocorticogram (ECoG) or electroencephalographic (EEG) measures to determine the efficacy of the T-type calcium channel antagonistin the altering the states of arousal or sleep.
Eight adult male Sprague Dawley rats (450-550 g; Taconic Farms, Germantown, N.Y.) were subcutaneously implanted with telemetric physiologic monitors (Model F50-EET; Data Sciences International, Arden Hills, Minn.) that were used to simultaneously record both the electrocorticogram (ECoG) and electromyographic (EMG) activities. […]
Following the completion of data collection, all data were scored with automated sleep stage analysis software, Somnologica (Medcare Co.; Buffalo, N.Y.). […] Active wake was assigned to the epoch when movement of the animal was detected within the cage, or when there was an active EMG signal and the EEG consisted of alpha and beta frequency activity. An epoch was scored as light sleep when there was no movement activity, the EMG was moderately active and the EEG consisted of either theta or theta with less than 50% of the epoch showing delta activity. Delta sleep was scored when there was no movement, reduced EMG activity, and the EEG consisted of more than 50% delta wave activity (i.e. 0.5 to 4 Hz). […]

Compound: CCN1C(=O)Nc2ccc(Cl)cc2C1(CC)c1ccccc1 (centres unmarked) [Compound A, 6-chloro-3,4-dihydro-3-ethyl-4-phenyl-4-ethyl-2(1H)-quinazolinone]
- entries into awake relative to vehicle (sleep fragmentation) (FIG. 1, 30 minute bins): reduced the entries into awake relative to vehicle
- wake duration relative to vehicle (FIG. 2, 30 minute bins): reduced the wake duration relative to vehicle

— US20060003985A1, “Enhancement of sleep with t-type calcium channel antagonists” (priority 2002, published 2006)
